From patent US10842847B2, “Treatment of degenerative joint disease” (Ampio Pharmaceuticals, Inc., priority 2011, dated 2020)
“Also recorded” adds a separate entry of the source.

System: oxidized collagen IV
Assay: Binding of DA-DKP and NAT to H2O2 treated collagen IV (LCMS of <5 kDa fraction)
Set-up: species or system human
Conditions: for binding to oxidized collagen, result in words: equimolar concentration
Protocol: Collagen source: 1 mg/ml Collagen IV form human placenta in 0.25% acetic acid (Sigma™). The collagen was oxidixed with 500 μM H2O2 in 1×PBS for 1 hour at 37° C. The oxidized collagen IV (final=0.2 mg/ml) was then incubated with 2 μM DA-DKP or 2 NAT in PBS for 1 hour at 37° C. At the end of the incubation, the <5 kDa fraction was isolated by a VIVASPIN® 2 microcentrifugal filter having a molecular weight cutoff of 5,000. The <5 kDa fraction was analyzed for DA-DKP and/or NAT content using a liquid chromatograph-mass spectrometery (LCMS) method for DA-DKP analysis.

[1] = 2 μM + oxidized Collagen IV 0.2 mg/ml, 1 hour at 37° C., content of <5 kDa fraction

Average % decrease [1] [%]	Average % decrease (2 μM + oxidized Collagen IV w/2 μM NAT) [%]	Average % decrease (2 μM + oxidized Collagen IV w/2 μM DA-DKP) [%]	SMILES	binding to oxidized collagen, result in words
26.0	25.6		C[C@@H]1NC(=O)[C@H](CC(=O)O)NC1=O [DA-DKP, aspartyl-alanyl diketopiperazine]	bind to oxidized forms of collagen
48.9		28.7	CC(=O)N[C@@H](Cc1c[nH]c2ccccc12)C(=O)O [NAT, N-acetyl-tryptophan]	binds more to oxidized collagen IV than DA-DKP; also recorded: bind to oxidized forms of collagen
